How the values were obtained:
TTR [1] = experiment: TTR editing in HEK293_Cas9 cells transfected with dgRNAs (Table 4); assay type: cell-based, human; conditions: HEK293_Cas9 cells (constitutively express Spy Cas9) transfected with dgRNAs
Description: HEK293 Cas9 cell line. The human embryonic kidney adenocarcinoma cell line HEK293 constitutively expressing Spy Cas9 (“HEK293_Cas9”) was cultured in DMEM media supplemented with 10% fetal bovine serum and 500 μg/ml G418. Cells were plated at a density of 10,000 cells/well in a 96-well plate 24 hours prior to transfection. Cells were transfected with Lipofectamine RNAiMAX (ThermoFisher, Cat. 13778150) per the manufacturer's protocol. Cells were transfected with a lipoplex containing individual crRNA (25 nM), trRNA (25 nM), Lipofectamine RNAiMAX (0.3 μL/well) and OptiMem.
(§1) Transfected cells were harvested post-transfection at 24, 48, or 72 hours. The genomic DNA was extracted from each well of a 96-well plate using 50 μL/well BuccalAmp DNA Extraction solution (Epicentre, Cat. QE09050) per manufacturer's protocol. All DNA samples were subjected to PCR and subsequent NGS analyses, as described herein.
(§2) To quantitatively determine the efficiency of editing at the target location in the genome, sequencing was utilized to identify the presence of insertions and deletions introduced by gene editing.
(§3) Primers were designed around the target site within the gene of interest (e.g. TTR), and the genomic area of interest was amplified.
(§4) Additional PCR was performed per the manufacturer's protocols (Illumina) to add chemistry for sequencing. The amplicons were sequenced on an Illumina MiSeq instrument. The reads were aligned to a reference genome (e.g., the human reference genome (hg38), the cynomologus reference genome (mf5), the rat reference genome (rn6), or the mouse reference genome (mm10)) after eliminating those having low quality scores. The resulting files containing the reads were mapped to the reference genome (BAM files), where reads that overlapped the target region of interest were selected and the number of wild type reads versus the number of reads which contain an insertion, substitution, or deletion was calculated.
(§5) The editing percentage (e.g., the “editing efficiency” or “percent editing” or “indel frequency”) is defined as the total number of sequence reads with insertions/deletions (“indels”) or substitutions over the total number of sequence reads, including wild type.
(§6) Guides in dgRNA format targeting human TTR and the cynomologus matched sequences were delivered to HEK293 Cas9, HUH7 and HepG2 cell lines, as well as primary human hepatocytes and primary cynomolgus monkey hepatocytes as described in Example 1. Percent editing was determined for crRNAs comprising each guide sequence across each cell type and the guide sequences were then rank ordered based on highest % edit. The screening data for the guide sequences in Table 1 in all five cell lines are listed below (Table 4 through 11).

TTR [2] = experiment: TTR editing in HUH7 cells transfected with Spy Cas9 mRNA and dgRNAs (Table 5); assay type: cell-based, human; conditions: HUH7 cells co-transfected with Spy Cas9 mRNA (SEQ ID NO:2) and dgRNAs
Description: HUH7 cell line. The human hepatocellular carcinoma cell line HUH7 (Japanese Collection of Research Bioresources Cell Bank, Cat. JCRB0403) was cultured in DMEM media supplemented with 10% fetal bovine serum. Cells were plated on at a density of 15,000 cells/well in a 96-well plate 20 hours prior to transfection. Cells were transfected with Lipofectamine MessengerMAX (ThermoFisher, Cat. LMRNA003) per the manufacturer's protocol. Cells were sequentially transfected with a lipoplex containing Spy Cas9 mRNA (100 ng), MessengerMAX (0.3 μL/well) and OptiMem followed by a separate lipoplex containing individual crRNA (25 nM), tracer RNA (25 nM), MessengerMAX (0.3 μL/well) and OptiMem.
as §1, §2, §3, §4, §5, §6

TTR [3] = experiment: TTR editing in HepG2 cells transfected with Spy Cas9 mRNA and dgRNAs (Table 6); assay type: cell-based, human; conditions: HepG2 cells co-transfected with Spy Cas9 mRNA (SEQ ID NO:2) and dgRNAs
Description: HepG2 cell line. The human hepatocellular carcinoma cell line HepG2 (American Type Culture Collection, Cat. HB-8065) was cultured in DMEM media supplemented with 10% fetal bovine serum. Cells were counted and plated on Bio-coat collagen I coated 96-well plates (ThermoFisher, Cat. 877272) at a density of 10,000 cells/well in a 96-well plate 24 hours prior to transfection. Cells were transfected with Lipofectamine 2000 (ThermoFisher, Cat. 11668019) per the manufacturer's protocol. Cells were sequentially transfected with lipoplex containing Spy Cas9 mRNA (100 ng), Lipofectamine 2000 (0.2 μL/well) and OptiMem followed by a separate lipoplex containing individual crRNA (25 nM), tracer RNA (25 nM), Lipofectamine 2000 (0.2 μL/well) and OptiMem.
as §1, §2, §3, §4, §5, §6

TTR [4] = experiment: TTR editing in primary human hepatocytes electroporated with Spy Cas9 protein loaded with dgRNAs (Table 7); assay type: cell-based; conditions: dgRNA electroporated with Spy Cas9 protein (RNP)
Description: (§7) Primary liver hepatocytes. Primary human liver hepatocytes (PHH) and primary cynomolgus liver hepatocytes (PCH) (Gibco) were cultured per the manufacturer's protocol (Invitrogen, protocol 11.28.2012). In brief, the cells were thawed and resuspended in hepatocyte thawing medium with supplements (Gibco, Cat. CM7000) followed by centrifugation at 100 g for 10 minutes for human and 80 g for 4 minutes for cyno. The supernatant was discarded and the pelleted cells resuspended in hepatocyte plating medium plus supplement pack (Invitrogen, Cat. A1217601 and CM3000). Cells were counted and plated on Bio-coat collagen I coated 96-well plates (ThermoFisher, Cat. 877272) at a density of 33,000 cells/well for human or 60,000 cells/well for cyno (or 65,000 cells/well when assaying effects on TTR protein, described further below). Plated cells were allowed to settle and adhere for 6 or 24 hours in a tissue culture incubator at 37° C. and 5% CO2 atmosphere. After incubation cells were checked for monolayer formation and media was replaced with hepatocyte culture medium with serum-free supplement pack (Invitrogen, Cat. A1217601 and CM4000).
(§8) […] formation was performed prior to electroporation or transfection of Spy Cas9 protein loaded with guide RNAs (RNPs) onto cells. For dual guide (dgRNAs), individual crRNA and trRNA was pre-annealed by mixing equivalent amounts of reagent and incubating at 95° C. for 2 min and cooling to room temperature. Single guide (sgRNAs) were boiled at 95° C. for 2 min and cooling to room temperature. The boiled dgRNA or sgRNA was incubated with Spy Cas9 protein in Optimem for 10 minutes at room temperature to form a ribonucleoprotein (RNP) complex.
For RNP electroporation into primary human and cyno hepatocytes, the cells are thawed and resuspended in Lonza electroporation Primary Cell P3 buffer at a concentration of 2500 cells per μL for human hepatocytes and 3500 cells per μL for cyno hepatocytes. A volume of 20 μL of resuspended cells and 5 μL of RNP are mixed together per guide. 20 μL of the mixture is placed into a Lonza electroporation plate. The cells were electroporated using the Lonza nucleofector with the preset protocol EX-147. Post electroporation, the cells are transferred into a Biocoat plate containing pre-warmed maintenance media and placed in a tissue culture incubator at 37° C. and 5% CO2.
as §1, §2, §3, §4
The editing percentage (e.g., the “editing efficiency” or “percent editing” or “indel frequency”) is defined as the total number of sequence reads with insertions/deletions (“indels”) or substitutions over the total number of sequence reads, including wild type. […]

TTR [5] = experiment: TTR editing in primary human hepatocytes transfected with Spy Cas9 protein (RNP) loaded with dgRNAs (Table 8); assay type: cell-based; conditions: dgRNA transfected with Spy Cas9 protein (RNP)
Description: as §7, §8
For RNP lipoplex transfections, cells were transfected with Lipofectamine RNAiMAX (ThermoFisher, Cat. 13778150) per the manufacturer's protocol. Cells were transfected with an RNP containing Spy Cas9 (10 nM), individual guide (10 nM), tracer RNA (10 nM), Lipofectamine RNAiMAX (1.0 μL/well) and OptiMem. RNP formation was performed as described above.
as §1, §2, §3, §4, §5
Guides in dgRNA format targeting human TTR and the cynomologus matched sequences were delivered to HEK293 Cas9, HUH7 and HepG2 cell lines, as well as primary human hepatocytes and primary cynomolgus monkey hepatocytes as described in Example 1. […]

TTR [6] = experiment: TTR editing in primary human hepatocytes transfected with Spy Cas9 mRNA and dgRNAs (Table 9); assay type: cell-based; conditions: dgRNA co-transfected with Spy Cas9 mRNA (SEQ ID NO:2)
Description: as §7
Lipofectamine RNAiMax (ThermoFisher, Cat. 13778150) based transfections were conducted as per the manufacturer's protocol. Cells were sequentially transfected with a lipoplex containing Spy Cas9 mRNA (100 ng), Lipofectamine RNAiMax (0.4 μL/well) and OptiMem followed by a separate lipoplex containing crRNA (25 nM) and tracer RNA (25 nM) or sgRNA (25 nM), Lipofectamine RNAiMax (0.4 μL/well) and OptiMem.
as §1, §2, §3, §4, §5, §6

Sequence	Avg % Deletion (TTR [1])	Avg % Edit (TTR [1])	Avg % Insert (TTR [1])	Avg % Deletion (TTR [2])	Avg % Edit (TTR [2])	Avg % Insert (TTR [2])	Avg % Deletion (TTR [3])	Avg % Edit (TTR [3])	Avg % Insert (TTR [3])	Avg % Deletion (TTR [4])	Avg % Edit (TTR [4])	Avg % Insert (TTR [4])	Avg % Deletion (TTR [5])	Avg % Edit (TTR [5])	Avg % Insert (TTR [5])	Avg % Deletion (TTR [6])	Avg % Edit (TTR [6])	Avg % Insert (TTR [6])
CACAUGCACGGCCACAUUGA (tested as dual guide RNA, chemistry not given here) [CR003350]	16.77%	22.31%	5.54%	41.64%	52.91%	13.43%	4.44%	29.60%	25.16%	5.73%	28.13%	22.40%	5.07%	24.84%	19.77%	10.33%	26.63%	16.33%
GGGCGGCAAUGGUGUAGCGG (tested as dual guide RNA, chemistry not given here) [CR003379]	20.98%	26.32%	5.34%	16.48%	19.18%	3.38%	2.04%	19.74%	17.70%	0.27%	6.57%	6.30%	0.34%	16.86%	16.51%	1.27%	13.20%	12.00%
UGCACGGCCACAUUGAUGGC (tested as dual guide RNA, chemistry not given here) [CR003349]	5.16%	13.19%	8.03%	4.82%	14.14%	9.73%	3.91%	8.36%	4.46%	1.87%	4.10%	2.33%	1.83%	10.83%	9.00%	1.70%	2.57%	0.90%
GCGGCGGGGGCCGGAGUCGU (tested as dual guide RNA, chemistry not given here) [CR003374]	10.10%	10.91%	0.81%	2.87%	3.10%	0.45%	0.31%	5.43%	5.12%	0.10%	0.80%	0.70%	0.14%	2.65%	2.52%	0.03%	0.27%	0.27%
CGGCAAUGGUGUAGCGGCGG (tested as dual guide RNA, chemistry not given here) [CR003376]	26.81%	28.16%	1.35%	18.55%	19.42%	1.37%	0.24%	14.41%	14.16%	0.03%	1.90%	1.87%	0.14%	5.00%	4.86%	0.13%	2.83%	2.73%
AAAUCUUACUGGAAGGCACU (tested as dual guide RNA, chemistry not given here) [CR005306]	–	–	–	–	–	–	2.87%	24.07%	21.20%	1.37%	9.43%	8.07%	2.57%	18.81%	16.24%	2.87%	9.97%	7.13%

Reference: patent US11795460B2, “Compositions and methods for TTR gene editing and treating ATTR amyloidosis” (Intellia Therapeutics, Inc., priority 2017, dated 2023)
